Measured values: the supplement of paper PMC11451515

Tests used:
Conditions in all cases: 48 h
SEM cells [1] = experiment: cell viability relative to DMSO control; higher = less cytotoxic
How it was run: (§1)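 Viability is expressed as a percentage of DMSO wells within each plate, and cell-free wells serve as background. Seeding densities in the 1536-well plates (5 μl) were 500 cells/well for NOMO1 or SEM leukemia cells and 1000 cells/well for P12-Ichikawa. Each line was adapted for at least four passages in each medium. Library compounds in DMSO were pin-dosed at 47 μM to 0.79 nM (11 points, threefold), and CellTiter-Glo One luminescence was read after 48 h at 37°C.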

P12-Ichikawa [2] = experiment: as above
How it was run: as §1

NOMO1 [3] = experiment: as above
How it was run: as §1

SEM cells [4] = experiment: AUC of viability dose-response curve (% viability x log10 dose units); higher = less sensitive
How it was run: (§2)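 In 1536-well plates, leukemia cells adapted to each medium (500 or 1000 cells/well) were exposed for 48 h at 37°C to library compounds in DMSO across 11 threefold doses, 47 μM down to 0.79 nM. Viability was read by CellTiter-Glo One luminescence and normalised per plate to DMSO and cell-free wells. A four-parameter log-logistic fit over log10 doses was integrated by trapezoidal rule. This yielded the area under the curve, with over-full-viability curves scaled and quality-control failures dropped.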

P12-Ichikawa [5] = experiment: as above
How it was run: as §2

NOMO1 [6] = experiment: as above
How it was run: as §2

CCC(C)(C)c1ccc(CC(C)CN2C[C@@H](C)O[C@@H](C)C2)cc1 (stereo partly specified)
cell viability [%]
Conditions | NOMO1 [3] | P12-Ichikawa [2] | SEM cells [1]
HPLM + 10% dialyzed FBS, 0.000781 µM | 87.4 | 81.2 | 69
HPLM + 10% dialyzed FBS, 0.00234 µM | 91.8 | 81.5 | 62.1
HPLM + 10% dialyzed FBS, 0.00702 µM | 87.9 | 82.8 | 88.1
HPLM + 10% dialyzed FBS, 0.0211 µM | 82 | 91.5 | 87.3
HPLM + 10% dialyzed FBS, 0.0632 µM | 93.3 | 97.3 | 72.2
HPLM + 10% dialyzed FBS, 0.19 µM | 84.8 | 84.6 | 64.7
HPLM + 10% dialyzed FBS, 0.569 µM | 97 | 91.9 | 74.7
HPLM + 10% dialyzed FBS, 1.71 µM | 80.9 | 94.9 | 75.5
HPLM + 10% dialyzed FBS, 5.12 µM | 93.6 | 89 | 84.1
HPLM + 10% dialyzed FBS, 15.4 µM | 87.1 | 87.8 | 67.8
HPLM + 10% dialyzed FBS, 46.1 µM | 87.9 | 91.6 | 74.3
RPMI 5 mM glucose + 10% FBS, 0.000781 µM | 71.5 | 88.9 | 80
RPMI 5 mM glucose + 10% FBS, 0.00234 µM | 74.7 | 81.4 | 67.6
RPMI 5 mM glucose + 10% FBS, 0.00702 µM | 73.5 | 88.1 | 87.1
RPMI 5 mM glucose + 10% FBS, 0.0211 µM | 77.9 | 87.8 | 79.9
RPMI 5 mM glucose + 10% FBS, 0.0632 µM | 77.5 | 89.1 | 89.4
RPMI 5 mM glucose + 10% FBS, 0.19 µM | 76.5 | 82.3 | 36.3
RPMI 5 mM glucose + 10% FBS, 0.569 µM | 75.8 | 93.9 | 91.8
RPMI 5 mM glucose + 10% FBS, 1.71 µM | 82.3 | 85.6 | 86.6
RPMI 5 mM glucose + 10% FBS, 5.12 µM | 77.9 | 90.7 | 84.5
RPMI 5 mM glucose + 10% FBS, 15.4 µM | 80.7 | 86.2 | 71.9
RPMI 5 mM glucose + 10% FBS, 46.1 µM | 77.5 | 88 | 76.8
RPMI 5 mM glucose + 10% dialyzed FBS, 0.000781 µM | 69.8 | 72 | 71
RPMI 5 mM glucose + 10% dialyzed FBS, 0.00234 µM | 87.9 | 76.7 | 67.1
RPMI 5 mM glucose + 10% dialyzed FBS, 0.00702 µM | 78.8 | 78.3 | 94.5
RPMI 5 mM glucose + 10% dialyzed FBS, 0.0211 µM | 77 | 79.6 | 91.7
RPMI 5 mM glucose + 10% dialyzed FBS, 0.0632 µM | 83.4 | 81.8 | 83.4
RPMI 5 mM glucose + 10% dialyzed FBS, 0.19 µM | 82 | 80.6 | 78.6
RPMI 5 mM glucose + 10% dialyzed FBS, 0.569 µM | 90.2 | 84 | 114
RPMI 5 mM glucose + 10% dialyzed FBS, 1.71 µM | 84 | 81.8 | 82.9
RPMI 5 mM glucose + 10% dialyzed FBS, 5.12 µM | 85.2 | 85.5 | 89.7
RPMI 5 mM glucose + 10% dialyzed FBS, 15.4 µM | 86.2 | 76.3 | 67.9
RPMI 5 mM glucose + 10% dialyzed FBS, 46.1 µM | 88 | 75.8 | 78

AUC of viability dose-response curve
Conditions | NOMO1 [6] | P12-Ichikawa [5] | SEM cells [4]
HPLM + 10% dialyzed FBS | 422 | 424 | 356
RPMI 5 mM glucose + 10% FBS | 368 | 417 | 369
RPMI 5 mM glucose + 10% dialyzed FBS | 397 | 380 | 398

C[C@@H]\1CC(=O)N\N=C1C2=CC=C(NN=C(C#N)C#N)C=C2
cell viability [%]
Conditions | NOMO1 [3] | P12-Ichikawa [2] | SEM cells [1]
HPLM + 10% dialyzed FBS, 0.000781 µM | 90.8 | 91.5 | 88.9
HPLM + 10% dialyzed FBS, 0.00234 µM | 89.5 | 92.9 | 86.8
HPLM + 10% dialyzed FBS, 0.00702 µM | 107 | 94.3 | 101
HPLM + 10% dialyzed FBS, 0.0211 µM | 95.5 | 94.4 | 87.4
HPLM + 10% dialyzed FBS, 0.0632 µM | 99.9 | 95.7 | 98.4
HPLM + 10% dialyzed FBS, 0.19 µM | 90.2 | 92.8 | 96.5
HPLM + 10% dialyzed FBS, 0.569 µM | 102 | 93.5 | 55.4
HPLM + 10% dialyzed FBS, 1.71 µM | 87.6 | 87.5 | 92.3
HPLM + 10% dialyzed FBS, 5.12 µM | 88.5 | 91.3 | 106
HPLM + 10% dialyzed FBS, 15.4 µM | 86.8 | 86.3 | 62.8
HPLM + 10% dialyzed FBS, 46.1 µM | 4.87 | 29.4 | 4.93
RPMI 5 mM glucose + 10% FBS, 0.000781 µM | 93.9 | 88.1 | 68.2
RPMI 5 mM glucose + 10% FBS, 0.00234 µM | 87.6 | 93.2 | 92.4
RPMI 5 mM glucose + 10% FBS, 0.00702 µM | 92.6 | 92.2 | 107
RPMI 5 mM glucose + 10% FBS, 0.0211 µM | 90.6 | 89.5 | 92.6
RPMI 5 mM glucose + 10% FBS, 0.0632 µM | 87.9 | 93.9 | 88.4
RPMI 5 mM glucose + 10% FBS, 0.19 µM | 96.7 | 92.4 | 102
RPMI 5 mM glucose + 10% FBS, 0.569 µM | 85.7 | 96.7 | 39.3
RPMI 5 mM glucose + 10% FBS, 1.71 µM | 97.5 | 91.1 | 90.9
RPMI 5 mM glucose + 10% FBS, 5.12 µM | 89.2 | 93.4 | 95.2
RPMI 5 mM glucose + 10% FBS, 15.4 µM | 80 | 81.1 | 35.3
RPMI 5 mM glucose + 10% FBS, 46.1 µM | 7.6 | 15.6 | 5
RPMI 5 mM glucose + 10% dialyzed FBS, 0.000781 µM | 85.3 | 81.2 | 73.5
RPMI 5 mM glucose + 10% dialyzed FBS, 0.00234 µM | 94.7 | 85.7 | 88.4
RPMI 5 mM glucose + 10% dialyzed FBS, 0.00702 µM | 93.4 | 88.2 | 91.4
RPMI 5 mM glucose + 10% dialyzed FBS, 0.0211 µM | 90.7 | 92.3 | 93.1
RPMI 5 mM glucose + 10% dialyzed FBS, 0.0632 µM | 95.3 | 92.3 | 95.2
RPMI 5 mM glucose + 10% dialyzed FBS, 0.19 µM | 92.6 | 90.9 | 92.5
RPMI 5 mM glucose + 10% dialyzed FBS, 0.569 µM | 96.3 | 91.3 | 72.8
RPMI 5 mM glucose + 10% dialyzed FBS, 1.71 µM | 89 | 80.1 | 100
RPMI 5 mM glucose + 10% dialyzed FBS, 5.12 µM | 87.1 | 83.7 | 107
RPMI 5 mM glucose + 10% dialyzed FBS, 15.4 µM | 83.2 | 72.9 | 53.2
RPMI 5 mM glucose + 10% dialyzed FBS, 46.1 µM | 9.26 | 12.8 | 6.27

AUC of viability dose-response curve
Conditions | NOMO1 [6] | P12-Ichikawa [5] | SEM cells [4]
HPLM + 10% dialyzed FBS | 426 | 424 | 397
RPMI 5 mM glucose + 10% FBS | 410 | 417 | 368
RPMI 5 mM glucose + 10% dialyzed FBS | 413 | 392 | 393
